Measurements: patent publication US12312293B2, “Branched tail lipid compounds and compositions for intracellular delivery of therapeutic agents” (ModernaTX, Inc., priority 2019, dated 2025)

How the values were obtained:
[1] = Characteristics of lipid nanoparticles (size, PDI, encapsulation efficiency); assay type: physicochemical; settings: LNP with DSPC, cholesterol, PEG-1 and the compound; for % EE: encapsulation efficiency; for PDI: polydispersity index
Text: Lipid nanoparticles (e.g., empty LNPs or loaded LNPs) may be characterized by a variety of methods. For example, microscopy (e.g., transmission electron microscopy or scanning electron microscopy) may be used to examine the morphology and size distribution of a nanoparticle composition. Dynamic light scattering or potentiometry (e.g., potentiometric titrations) may be used to measure zeta potentials. Dynamic light scattering may also be utilized to determine particle sizes. Instruments such as the Zetasizer Nano ZS (Malvern Instruments Ltd, Malvern, Worcestershire, UK) may also be used to measure multiple characteristics of a nanoparticle composition, such as particle size, polydispersity index, and zeta potential.
The efficiency of encapsulation of a therapeutic and/or prophylactic describes the amount of therapeutic and/or prophylactic that is encapsulated or otherwise associated with a lipid nanoparticle (e.g., an empty LNP or a loaded LNP) after preparation, relative to the initial amount provided. The encapsulation efficiency is desirably high (e.g., close to 100%). The encapsulation efficiency may be measured, for example, by comparing the amount of therapeutic and/or prophylactic in a solution containing the lipid nanoparticle (e.g., an empty LNP or a loaded LNP) before and after breaking up the lipid nanoparticle (e.g., an empty LNP or a loaded LNP) with one or more organic solvents or detergents. Fluorescence may be used to measure the amount of free therapeutic and/or prophylactic (e.g., RNA) in a solution. For the lipid nanoparticles (e.g., empty LNPs or loaded LNPs) described herein, the encapsulation efficiency of a therapeutic and/or prophylactic may be at least 50%, for example 50%, 55%, 60%, 65%, 70%, 75%, 80%, 85%, 90%, 91%, 92%, 93%, 94%, 95%, 96%, 97%, 98%, 99%, or 100%. In some embodiments, the encapsulation efficiency may be at least 80%. In certain embodiments, the encapsulation efficiency may be at least 90%. In some embodiments, the encapsulation efficiency of the therapeutic and/or prophylactic agent is between 80% and 100%.
Lipid nanoparticles (e.g., empty LNPs or loaded LNPs) including DSPC as a phospholipid, cholesterol as a structural lipid, PEG-1 as a PEG lipid, and a compound according to Formula (1-1), (2-1), (I-a), (A), (B), (A-1), (A-2), (A-3), (IA), (IB), (B-1), (B-2), (B-3), (A-a), (A-a1), (A-a2), (A-a3), (A-b), (A-b1), (A-b2), (A-b3), (A-c), or (B-c) were prepared. Tables 2a and 2b summarize the characteristics of the formulations.

[2] = Residual lipid levels in the liver of mice after LNP administration; assay type: in vivo; settings: calculation assumes a 25 g mouse with a 1.5 g liver

For `CCCCCC(CCCCC)CCOC(=O)CCCCCCCN(CCCCCCCC(=O)OCCC(CCC)CCC)CCCNc1c(NC)c(=O)c1=O` [Compound 51, 3-Pentyloctyl 8-((3-((2-(methylamino)-3,4-dioxocyclobut-1-en-1-yl)amino)propyl)(8-oxo-8-((3-propylhexyl)oxy)octyl)amino)octanoate], the “Size (nm)” value [1] was 58.3 nm, the “% EE” value [1] was 95.9% and the PDI [1] was 0.12.

For `CCCCC(CCCC)CCOC(=O)CCCCCCCN(CCCCCCCC(=O)OCCC(CCC)CCC)CCCNc1c(NC)c(=O)c1=O` [Compound 52, 3-Butylheptyl 8-((3-((2-(methylamino)-3,4-dioxocyclobut-1-en-1-yl)amino)propyl)(8-oxo-8-((3-propylhexyl)oxy)octyl)amino)octanoate], the “Size (nm)” value [1] was 70.5 nm, the “% EE” value [1] was 84.9% and the PDI [1] was 0.16.

With `CCCC(CCC)CCOC(=O)CCCCCCCN(CCCCCCCC(=O)OCCC(CCC)CCC)CCCNc1c(NC)c(=O)c1=O` [Compound 53, Bis(3-propylhexyl) 8,8′-((3-((2-(methylamino)-3,4-dioxocyclobut-1-en-1-yl)amino)propyl)azanediyl)dioctanoate] the “Size (nm)” value [1] was 106.7 nm, the “% EE” value [1] was 84.2% and the PDI [1] was 0.28.

In the case of `CCCCCC(CCCCC)CCOC(=O)CCCCCCCN(CCCCCCCC(=O)OCCC(CCCC)CCCC)CCCNc1c(NC)c(=O)c1=O` [Compound 54, 3-Butylheptyl 8-((3-((2-(methylamino)-3,4-dioxocyclobut-1-en-1-yl)amino)propyl)(8-oxo-8-((3-pentyloctyl)oxy)octyl)amino)octanoate], the “Size (nm)” value [1] is reported as 64.3 nm, the “% EE” value [1] is reported as 98.3% and the PDI [1] is reported as 0.10.

With `CCCCC(CCCC)CCOC(=O)CCCCCCCN(CCCCCCCC(=O)OCCC(CCCC)CCCC)CCCNc1c(NC)c(=O)c1=O` [Compound 55, Bis(3-butylheptyl) 8,8′-((3-((2-(methylamino)-3,4-dioxocyclobut-1-en-1-yl)amino)propyl)azanediyl)dioctanoate] the “Size (nm)” value [1] was 77.0 nm, the “% EE” value [1] was 88.9% and the PDI [1] was 0.25.

For `CCCCCC(CCCCC)CCOC(=O)CCCCCCCN(CCCCCCCC(=O)OC(CCCCC)CCCCC)CCCNc1c(NC)c(=O)c1=O` [Compound 57, 3-Pentyloctyl 8-((3-((2-(methylamino)-3,4-dioxocyclobut-1-en-1-yl)amino)propyl)(8-oxo-8-(undecan-6-yloxy)octyl)amino)octanoate], the “Size (nm)” value [1] was 69.4 nm, the “% EE” value [1] was 90.1% and the PDI [1] was 0.12.

In the case of `CCCCCC(CCCCC)CCOC(=O)CCCCCCCN(CCCCCCCC(=O)OC(CCCC)CCCC)CCCNc1c(NC)c(=O)c1=O` [Compound 58, Nonan-5-yl 8-((3-((2-(methylamino)-3,4-dioxocyclobut-1-en-1-yl)amino)propyl)(8-oxo-8-((3-pentyloctyl)oxy)octyl)amino)octanoate], the “Size (nm)” value [1] is reported as 63.9 nm, the “% EE” value [1] is reported as 90.1% and the PDI [1] is reported as 0.12.

For `CCCCCCC(CCCCCC)OC(=O)CCCCCCCN(CCCCCCCC(=O)OCCC(CCCC)CCCC)CCCNc1c(NC)c(=O)c1=O` [Compound 60, 3-Butylheptyl 8-((3-((2-(methylamino)-3,4-dioxocyclobut-1-en-1-yl)amino)propyl)(8-oxo-8-(tridecan-7-yloxy)octyl)amino)octanoate], the “Size (nm)” value [1] was 60.4 nm, the “% EE” value [1] was 98.8% and the PDI [1] was 0.14.

With `CCCCCC(CCCCC)OC(=O)CCCCCCCN(CCCCCCCC(=O)OCCC(CCCC)CCCC)CCCNc1c(NC)c(=O)c1=O` [Compound 61, 3-Butylheptyl 8-((3-((2-(methylamino)-3,4-dioxocyclobut-1-en-1-yl)amino)propyl)(8-oxo-8-(undecan-6-yloxy)octyl)amino)octanoate] the “Size (nm)” value [1] was 63.5 nm, the “% EE” value [1] was 98.1% and the PDI [1] was 0.09.

With `CCCCC(CCCC)CCOC(=O)CCCCCCCN(CCCCCCCC(=O)OC(CCCC)CCCC)CCCNc1c(NC)c(=O)c1=O` [Compound 62, 3-Butylheptyl 8-((3-((2-(methylamino)-3,4-dioxocyclobut-1-en-1-yl)amino)propyl)(8-(nonan-5-yloxy)-8-oxooctyl)amino)octanoate] the “Size (nm)” value [1] was 91.0 nm, the “% EE” value [1] was 83.0% and the PDI [1] was 0.17.

In the case of `CCCCCCCC(CCCCCCC)OC(=O)CCCCCCCN(CCCCCCCC(=O)OCCC(CCC)CCC)CCCNc1c(NC)c(=O)c1=O` [Compound 63, Pentadecan-8-yl 8-((3-((2-(methylamino)-3,4-dioxocyclobut-1-en-1-yl)amino)propyl)(8-oxo-8-((3-propylhexyl)oxy)octyl)amino)octanoate], the “Size (nm)” value [1] is reported as 56.2 nm, the “% EE” value [1] is reported as 98.1% and the PDI [1] is reported as 0.15. For the same compound, the “Approx. Percent Total Dose of Parent Lipid Remaining at 24 h” value [2] was 9 ± 3%.

In the case of `CCCCCCC(CCCCCC)OC(=O)CCCCCCCN(CCCCCCCC(=O)OCCC(CCC)CCC)CCCNc1c(NC)c(=O)c1=O` [Compound 64, 3-Propylhexyl 8-((3-((2-(methylamino)-3,4-dioxocyclobut-1-en-1-yl)amino)propyl)(8-oxo-8-(tridecan-7-yloxy)octyl)amino)octanoate], the “Size (nm)” value [1] is reported as 73.6 nm, the “% EE” value [1] is reported as 89.2% and the PDI [1] is reported as 0.13.

With `CCCCCC(CCCCC)OC(=O)CCCCCCCN(CCCCCCCC(=O)OCCC(CCC)CCC)CCCNc1c(NC)c(=O)c1=O` [Compound 65, 3-Propylhexyl 8-((3-((2-(methylamino)-3,4-dioxocyclobut-1-en-1-yl)amino)propyl)(8-oxo-8-(undecan-6-yloxy)octyl)amino)octanoate] the “Size (nm)” value [1] was 83.1 nm, the “% EE” value [1] was 88.6% and the PDI [1] was 0.17.

In the case of `CCCCC(CCCC)OC(=O)CCCCCCCN(CCCCCCCC(=O)OCCC(CCC)CCC)CCCNc1c(NC)c(=O)c1=O` [Compound 66, Nonan-5-yl 8-((3-((2-(methylamino)-3,4-dioxocyclobut-1-en-1-yl)amino)propyl)(8-oxo-8-((3-propylhexyl)oxy)octyl)amino)octanoate], the “Size (nm)” value [1] is reported as 145.3 nm, the “% EE” value [1] is reported as 81.7% and the PDI [1] is reported as 0.25.
